Laboratory results: publication PMC6150413 (Molecules : A Journal of Synthetic Chemistry and Natural …, 2017)
Ends that are not written are not given here. Peptide text beside a SMILES is read from it.

Assays:
[1] = tested on: E. coli ATCC 25922; conditions: ATCC 25922, 2 h
Procedure: (§1) The antimicrobial activities of VIP and its analogues were tested against S. aureus ATCC 25923 and E. coli ATCC 25922 according to the method reported by Wani et al. with slight modification. The final peptide concentrations ranged from 0.5 to 256 μM. The tests were performed in triplicate using 4 replicates for each experiment. In addition, S. aureus ATCC 25923 and E. coli ATCC 25922 (2 × 10^6 CFU/mL) were treated with natural VIP and VIP8 at MIC for 2 h. […] The haemolytic activity of VIP and VIP derivatives were measured using porcine erythrocytes according to previous method. MTT (3-[4,5 dimethylthiozol-2-yl]-2,5-diphenyltetrazolium bromide) was used to determine the cytotoxicity of VIP and its analogue on porcine intestinal epithelial cells IPEC-J2. Stable experiments were conducted with reference to the literature with slightly changes. First, the pH of the mediums was adjusted to acidic (pH 4.0, pH 5.0, and pH 6.0) and basic (pH 8.0, pH 9.0, and pH 10.0) conditions. To investigate the effects of ion strength, the bacterial mediums were supplemented with different concentrations of NaCl (20 mM, 60 mM, and 180 mM) or MgCl2 (1 mM, 25 mM, and 50 mM). Then, bacteria were incubated with VIP, VIP analogues 2 and 8, respectively. After 3 h of incubation, bacterial viability was measured with a Synergy HT multimode reader (BioTek, Winooski, VT, USA) at 600 nm.
(§2) Both the agar diffusion test and modified broth microdilution method were used to evaluate the antimicrobial activity of recombinant expressed VIP8. For the Oxford cup agar diffusion, the sample was added to an Oxford cup, which was then placed on a Mueller-Hinton agar plate containing 1 × 10^5 colony-forming units of S. aureus […]. Chemically-synthesized VIP8 and ampicillin were used as the positive control. The minimal inhibition concentration was determined by the method reported by Wani et al..

[2] = tested on: S. aureus ATCC 25923; conditions: ATCC 25923, 2 h
Procedure: as §1, §2

[3] = tested on: 3T3-L1 cells
[4] = design: method as in PMID 9038346; conditions: salt from 50 to 125 mmol/L; cited from earlier work
[5] = tested on: E. coli; conditions: cited from earlier work
[6] = tested on: P. aeruginosa; conditions: cited from earlier work
[7] = tested on: S. aureus; conditions: cited from earlier work

CC[C@H](C)[C@H](NC(=O)[C@H](C)NC(=O)[C@H](C)NC(=O)[C@H](CC(C)C)NC(=O)[C@H](Cc1ccc(O)cc1)NC(=O)[C@H](CCCNC(=N)N)NC(=O)[C@H](CCCNC(=N)N)NC(=O)[C@@H](NC(=O)[C@H](C)NC(=O)[C@H](CC(C)C)NC(=O)[C@H](CCC(N)=O)NC(=O)[C@H](CCCNC(=N)N)NC(=O)[C@H](CCCNC(=N)N)NC(=O)[C@H](CC(C)C)NC(=O)[C@H](CCCNC(=N)N)NC(=O)[C@@H](NC(=O)[C@H](Cc1ccc(O)cc1)NC(=O)[C@H](CC(N)=O)NC(=O)[C@H](C)NC(=O)[C@@H](NC(=O)[C@@H](N)Cc1ccccc1)[C@@H](C)O)[C@@H](C)O)C(C)C)C(=O)N[C@@H](CC(C)C)C(=O)NCC(=O)N[C@@H](CCCNC(=N)N)C(=O)N[C@@H](CCCNC(=N)N)C(=O)O [VIP8] (H-FTANYTRLRRQLAVRRYLAAILGRR-OH)
MBC (minimum bactericidal concentration) [1]: 4 µM
MIC (minimum inhibitory concentration) [1]: 2 µM
MBC (minimum bactericidal concentration) [2]: 4 µM
MIC (minimum inhibitory concentration) [2]: 2 µM
Cytotoxicity (in words) [3]: no cytotoxicity

human β-defensin 1 (DHYNCVSSGGQCLYSACPIFTKIQGTCYRGKAKCCK; ends and bridges not checked; cysteine pairing not given here; UniProt P60022 33-68, looked up) [hBD-1, human β-defensin quoted from the literature]
Activity remaining at raised salt concentration [4]: 12%

human β-defensin 4 (EFELDRICGYGTARCRKKCRSQEYRIGRCPNTYACCLRKWDESLLNRTKP; ends and bridges not checked; cysteine pairing not given here; UniProt Q8WTQ1 23-72, looked up) [hBD-4, human β-defensin quoted from the literature]
Antimicrobial activity at high concentrations of NaCl [5]: attenuated
Antimicrobial activity at high concentrations of NaCl [6]: attenuated
Antimicrobial activity at high concentrations of NaCl [7]: attenuated
